pIC50: −log10 of the molar value. Where two headings read alike, the source gives them in different places.
Biological target: Kv1.5 (Homo sapiens, UniProt P22460)
Assay: Kv1.5 inhibition assay (IKur inhibitor assay per cited references)
Type: cell-based
Details: for inhibition at 0.3 µM / Kv1.5% inhibition: at 0.3 μM; for pIC50: read-out: Kv1.5 IC50
From the text: Assays to determine the degree of activity of a compound as an IKur inhibitor are well known in the art and are described in references such as J. Gen. Physiol. Apr.; 101 (4):513-43, and Br. J. Pharmacol. 1995 May; 115(2):267-74.

Chain of Kv1.5 (P22460 whole entry): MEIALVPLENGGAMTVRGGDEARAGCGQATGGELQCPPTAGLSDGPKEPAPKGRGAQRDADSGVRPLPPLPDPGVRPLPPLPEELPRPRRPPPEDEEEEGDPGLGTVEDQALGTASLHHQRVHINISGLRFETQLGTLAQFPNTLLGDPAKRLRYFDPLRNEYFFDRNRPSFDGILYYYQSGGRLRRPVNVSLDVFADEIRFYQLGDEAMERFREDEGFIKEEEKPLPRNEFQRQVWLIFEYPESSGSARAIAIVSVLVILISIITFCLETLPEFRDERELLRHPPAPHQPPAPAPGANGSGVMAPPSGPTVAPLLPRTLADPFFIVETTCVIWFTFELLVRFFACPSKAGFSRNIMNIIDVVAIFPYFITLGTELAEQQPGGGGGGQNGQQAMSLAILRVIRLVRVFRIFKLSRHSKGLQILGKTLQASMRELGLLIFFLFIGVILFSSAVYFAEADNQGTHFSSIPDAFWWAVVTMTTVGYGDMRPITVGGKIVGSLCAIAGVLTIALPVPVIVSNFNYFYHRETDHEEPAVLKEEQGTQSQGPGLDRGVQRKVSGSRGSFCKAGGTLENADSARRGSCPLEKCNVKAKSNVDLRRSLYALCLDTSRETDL

inhibition at 0.3 µM	Compound	further results
48%	CC1=C(S(=O)(=O)c2ccc(Cl)cc2)C(CC(C)C)n2nc(C(F)(F)F)cc2N1 (single isomer, unassigned) [Example 45 Isomer 2, 6-(4-Chlorophenylsulfonyl)-7-isobutyl-5-methyl-2-(trifluoromethyl)-4,7-dihydropyrazolo[1,5-a]pyrimidine]	
7%	CC1=C(S(=O)(=O)N2CCCC2)C(c2ccc(Cl)c(Cl)c2)n2nc(C)nc2N1 (racemic) [Example 68, 7-(3,4-Dichlorophenyl)-2,5-dimethyl-6-(pyrrolidin-1-ylsulfonyl)-4,7-dihydro-[1,2,4]triazolo[1,5-a]pyrimidine]	
	CC1=C(S(=O)(=O)c2ccccc2)C(c2ccc(Cl)cc2)n2nc(C(F)(F)F)cc2N1 (single isomer, unassigned) [Example 26 Isomer 2, 7-(4-Chlorophenyl)-5-methyl-6-(phenylsulfonyl)-2-(trifluoromethyl)-4,7-dihydropyrazolo[1,5-a]pyrimidine]	Kv1.5% inhibition: 85.9%
	COc1ccc(S(=O)(=O)C2=C(C)Nc3cc(C(F)(F)F)nn3C2c2ccc(Cl)cc2)cc1 (single isomer, unassigned) [Example 25 Isomer 2, 7-(4-Chlorophenyl)-6-(4-methoxyphenylsulfonyl)-5-methyl-2-(trifluoromethyl)-4,7-dihydropyrazolo[1,5-a]pyrimidine]	Kv1.5% inhibition: 82.9%
41%	CC1=C(S(=O)(=O)N2CCCC2)C(c2cc3ccccc3n2C)n2nc(C(F)(F)F)cc2N1 (racemic) [Example 71, 5-Methyl-7-(1-methyl-1H-indol-2-yl)-6-(pyrrolidin-1-ylsulfonyl)-2-(trifluoromethyl)-4,7-dihydropyrazolo[1,5-a]pyrimidine]	
	CCN(CC)S(=O)(=O)C1=C(C)Nc2cc(C(F)(F)F)nn2C1c1ccc(Cl)c(Cl)c1 (single isomer, unassigned) [Example 64 Isomer 2, 7-(3,4-Dichlorophenyl)-N,N-diethyl-5-methyl-2-(trifluoromethyl)-4,7-dihydropyrazolo[1,5-a]pyrimidine-6-sulfonamide]	Kv1.5% inhibition: 60%
	CC1=C(S(=O)(=O)N2CCCC2)C(c2ccc(Cl)c(Cl)c2)n2nc(C(F)(F)F)cc2N1 (single isomer, unassigned) [Example 59 Isomer 2, 7-(3,4-Dichlorophenyl)-5-methyl-6-(pyrrolidin-1-ylsulfonyl)-2-(trifluoromethyl)-4,7-dihydropyrazolo[1,5-a]pyrimidine]	Kv1.5% inhibition: 86.4%
57%	CC1=C(C(=O)N(C)S(=O)(=O)C(C)C)C(c2ccc(Cl)c(Cl)c2)n2nc(C(F)(F)F)cc2N1 (single isomer, unassigned) [Example 96 Isomer 1, 7-(3,4-Dichlorophenyl)-N-(isopropylsulfonyl)-N,5-dimethyl-2-(trifluoromethyl)-4,7-dihydropyrazolo[1,5-a]pyrimidine-6-carboxamide]	
	CC1=C(S(=O)(=O)c2ccccc2)C(c2ccc(Cl)c(Cl)c2)n2nc(C)cc2N1 (single isomer, unassigned) [Example 3 Isomer 2, 7-(3,4-Dichlorophenyl)-2,5-dimethyl-6-(phenylsulfonyl)-4,7-dihydropyrazolo[1,5-a]pyrimidine]	pIC50: 6.53
87.9%	CC1=C(S(=O)(=O)C2CCCCC2)C(c2ccc(Cl)cc2)n2nc(C(F)(F)F)cc2N1 (single isomer, unassigned) [Example 29 Isomer 2, 7-(4-Chlorophenyl)-6-(cyclohexylsulfonyl)-5-methyl-2-(trifluoromethyl)-4,7-dihydropyrazolo[1,5-a]pyrimidine]	
	COc1ccc(S(=O)(=O)N(C)C(=O)C2=C(C)Nc3cc(C)nn3C2c2ccc(Cl)c(Cl)c2)cc1 (single isomer, unassigned) [Example 81 Isomer 2, 7-(3,4-Dichlorophenyl)-N-(4-methoxyphenylsulfonyl)-N,2,5-trimethyl-4,7-dihydropyrazolo[1,5-a]pyrimidine-6-carboxamide]	IC50 (given as % inhibition, value given as a concentration in μM, read-out: Kv1.5% inhibition): 0.098 µM
51%	CC1=C(S(=O)(=O)N2CCOCC2)C(c2ccc(Cl)c(Cl)c2)n2nc(C(F)(F)F)cc2N1 (single isomer, unassigned) [Example 66 Isomer 1, 7-(3,4-Dichlorophenyl)-5-methyl-6-(morpholinosulfonyl)-2-(trifluoromethyl)-4,7-dihydropyrazolo[1,5-a]pyrimidine]	
	CC1=C(C(=O)N(C)S(=O)(=O)C(C)C)C(c2ccc(Cl)c(Cl)c2)n2nc(C(F)(F)F)cc2N1 (racemic) [Example 87, 7-(3,4-Dichlorophenyl)-N-(isopropylsulfonyl)-N,5-dimethyl-2-(trifluoromethyl)-4,7-dihydropyrazolo[1,5-a]pyrimidine-6-carboxamide]	pIC50: 6.59
	CC1=C(S(=O)(=O)c2ccccc2)C(c2ccc(F)cc2)n2nc(C(F)(F)F)cc2N1 (single isomer, unassigned) [Example 36 Isomer 1, 7-(4-Fluorophenyl)-5-methyl-6-(phenylsulfonyl)-2-(trifluoromethyl)-4,7-dihydropyrazolo[1,5-a]pyrimidine]	pIC50: 6.68
78.1%	COc1ccccc1S(=O)(=O)C1=C(C)Nc2cc(C(F)(F)F)nn2C1c1ccc(Cl)cc1 (single isomer, unassigned) [Example 46 Isomer 1, 7-(4-Chlorophenyl)-6-(2-methoxyphenylsulfonyl)-5-methyl-2-(trifluoromethyl)-4,7-dihydropyrazolo[1,5-a]pyrimidine]	
	CC1=C(S(=O)(=O)NC2CCCCC2)C(c2ccc(Cl)c(Cl)c2)n2nc(C)cc2N1 (single isomer, unassigned) [Example 38 Isomer 1, N-Cyclohexyl-7-(3,4-dichlorophenyl)-2,5-dimethyl-4,7-dihydropyrazolo[1,5-a]pyrimidine-6-sulfonamide]	pIC50: 6.97
40%	CC1=C(S(=O)(=O)N2CCCC2)C(c2ccc(Cl)c(Cl)c2)n2nc(C)c(Cl)c2N1 (single isomer, unassigned) [Example 69 Isomer 1, 3-Chloro-7-(3,4-dichlorophenyl)-2,5-dimethyl-6-(pyrrolidin-1-ylsulfonyl)-4,7-dihydropyrazolo[1,5-a]pyrimidine]	
8.5%	Cc1cc2nc(C)c(S(=O)(=O)Cc3ccccc3)c(-c3ccc(Cl)c(Cl)c3)n2n1 (racemic) [Example 15, 6-(Benzylsulfonyl)-7-(3,4-dichlorophenyl)-2,5-dimethylpyrazolo[1,5-a]pyrimidine]	
34%	CC1=C(S(=O)(=O)c2ccc(Cl)cc2)C(c2cc3ccccc3n2C)n2nc(C(F)(F)F)cc2N1 (racemic) [Example 72, 6-(4-Chlorophenylsulfonyl)-5-methyl-7-(1-methyl-1H-indol-2-yl)-2-(trifluoromethyl)-4,7-dihydropyrazolo[1,5-a]pyrimidine]	
	CC1=C(S(=O)(=O)N2CCCC2)C(c2ccc(Cl)c(Cl)c2)n2nc(C)c(Cl)c2N1 (single isomer, unassigned) [Example 69 Isomer 2, 3-Chloro-7-(3,4-dichlorophenyl)-2,5-dimethyl-6-(pyrrolidin-1-ylsulfonyl)-4,7-dihydropyrazolo[1,5-a]pyrimidine]	Kv1.5% inhibition: 40%
37.6%	CC1=C(S(=O)(=O)c2ccc(Cl)cc2)C(c2ccc(C)cc2)n2nc(C(F)(F)F)cc2N1 (racemic) [Example 34, 6-(4-Chlorophenylsulfonyl)-5-methyl-7-p-tolyl-2-(trifluoromethyl)-4,7-dihydropyrazolo[1,5-a]pyrimidine]	
79%	CC1=C(C(=O)N(C)S(=O)(=O)c2ccccc2)C(c2ccc(Cl)c(Cl)c2)n2nccc2N1 (racemic) [Example 74, 7-(3,4-Dichlorophenyl)-N,5-dimethyl-N-(phenylsulfonyl)-4,7-dihydropyrazolo[1,5-a]pyrimidine-6-carboxamide]	
38%	CC1=C(C(=O)N(C)S(=O)(=O)c2ccc3ccc(Cl)cc3c2)C(c2ccc(Cl)c(Cl)c2)n2nccc2N1 (racemic) [Example 76, N-(7-Chloronaphthalen-2-ylsulfonyl)-7-(3,4-dichlorophenyl)-N,5-dimethyl-4,7-dihydropyrazolo[1,5-a]pyrimidine-6-carboxamide]	
89.8%	CC1=C(S(=O)(=O)N2CCCC2)C(c2ccc(Cl)c(Cl)c2)n2nc(C(F)(F)F)cc2N1 (single isomer, unassigned) [Example 59 Isomer 1, 7-(3,4-Dichlorophenyl)-5-methyl-6-(pyrrolidin-1-ylsulfonyl)-2-(trifluoromethyl)-4,7-dihydropyrazolo[1,5-a]pyrimidine]	
	CC1=C(S(=O)(=O)c2ccc(Cl)cc2)C(c2ccc(Cl)c(Cl)c2)n2nc(C(F)(F)F)cc2N1 (single isomer, unassigned) [Example 4 Isomer 1, 6-(4-Chlorophenylsulfonyl)-7-(3,4-dichlorophenyl)-5-methyl-2-(trifluoromethyl)-4,7-dihydropyrazolo[1,5-a]pyrimidine]	pIC50: 6.74
85.6%	COc1ccc(S(=O)(=O)C2=C(C)Nc3cc(C(F)(F)F)nn3C2c2ccc(Cl)cc2)cc1 (single isomer, unassigned) [Example 25 Isomer 1, 7-(4-Chlorophenyl)-6-(4-methoxyphenylsulfonyl)-5-methyl-2-(trifluoromethyl)-4,7-dihydropyrazolo[1,5-a]pyrimidine]	
7%	CC1=C(C(=O)N(C)S(=O)(=O)c2ccc(F)cc2)C(c2ccc(Cl)c(Cl)c2)n2nc(C(F)(F)F)cc2N1 (racemic) [Example 82, 7-(3,4-Dichlorophenyl)-N-(4-fluorophenylsulfonyl)-N,5-dimethyl-2-(trifluoromethyl)-4,7-dihydropyrazolo[1,5-a]pyrimidine-6-carboxamide]	
16%	COc1ccc(S(=O)(=O)N(C)C(=O)C2=C(C)Nc3cc(C)nn3C2c2ccc(Cl)c(Cl)c2)cc1 (single isomer, unassigned) [Example 81 Isomer 1, 7-(3,4-Dichlorophenyl)-N-(4-methoxyphenylsulfonyl)-N,2,5-trimethyl-4,7-dihydropyrazolo[1,5-a]pyrimidine-6-carboxamide]	
